Where “and” joins values, the source holds several entries; their conditions need not be identical. Equal entries are not always repeated. Where two headings read alike, the source gives them in different places.

Assay [1] addresses FLNA pentapeptide of SEQ ID NO: 1 (Bn-VAKGL) (Homo sapiens, UniProt P21333). As to the kind of experiment: FITC-NLX-based FLNA screening assay (inhibition of FITC-naloxone binding to Bn-VAKGL). The note with it: for Percent inhibition of FITC-NLX binding: listed as (−)NLX.
The next assay concerns the target kappa-opioid receptor (Homo sapiens, UniProt P41145). The note with it: cited from earlier work.
Setting [2] is: read-out: inhibition of binding of FITC-labeled NLX.

Chain of kappa-opioid receptor (P41145 whole entry): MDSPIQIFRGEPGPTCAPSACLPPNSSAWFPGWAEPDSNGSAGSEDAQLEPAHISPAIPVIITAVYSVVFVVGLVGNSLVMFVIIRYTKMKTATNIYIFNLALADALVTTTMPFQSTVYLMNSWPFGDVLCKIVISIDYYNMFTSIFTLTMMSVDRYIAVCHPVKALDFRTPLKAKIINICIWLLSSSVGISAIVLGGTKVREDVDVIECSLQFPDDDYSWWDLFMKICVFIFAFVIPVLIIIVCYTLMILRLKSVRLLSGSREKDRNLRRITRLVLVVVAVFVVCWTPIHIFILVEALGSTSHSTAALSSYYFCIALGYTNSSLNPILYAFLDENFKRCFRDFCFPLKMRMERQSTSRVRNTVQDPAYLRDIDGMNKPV

Take `Oc1ccc2c3c1O[C@H]1[C@H](O)CC[C@@]4(O)[C@@H](C2)N(CC2CC2)CC[C@]314` [6-β-Naltrexol]: the “Percent Inhibition” value in assay [1] (1 µM) is listed as 50.5%; in assay [1] (10 µM), 64.8%.
`CN1CC[C@]23c4c5ccc(O)c4O[C@H]2[C@@H](O)C=C[C@H]3[C@H]1C5` [morphine]: the “binding to the FLNA pentapeptide of SEQ ID NO: 1 (in words)” value (from here on “binding … of SEQ ID NO: 1 (in words)”) in assay [1] is on record as “do not bind well”. The inhibition at 10 µM in assay [1] (setting [2]) fell in the range of 25 to 50%.
For the compound `C=C1CC[C@@]2(O)[C@H]3Cc4ccc(O)c5c4[C@@]2(CCN3CC2CC2)[C@H]1O5` [Nalmefene], in assay [1] (read-out: Percent Inhibition), the inhibition at 1 µM worked out at 44.5% and the inhibition at 10 µM was found to be 66.9%.
For the compound `COC(=O)/C=C/C(=O)N[C@@H]1CC[C@@]2(O)[C@H]3Cc4ccc(O)c5c4[C@@]2(CCN3CC2CC2)[C@H]1O5` [β-Funaltrexamine], the “Percent Inhibition” value in assay [1] (1 µM) is 49.8%; in assay [1] (10 µM), 69.4%.
Regarding `C=CCN1CC[C@]23c4c5ccc(O)c4O[C@H]2[C@@H](O)C=C[C@H]3[C@H]1C5` [Nalorphine], the “RECEPTOR KAPPA: antagonism/agonism and relative potency” value on kappa-opioid receptor was “+”. The “binding … of SEQ ID NO: 1 (in words)” value in assay [1] is reported as “bind well”. In assay [1] (read-out: Percent Inhibition), the inhibition at 1 µM came to 58.7% and the inhibition at 10 µM was 60.2%.
With `COc1ccc2c3c1O[C@H]1C(=O)CC[C@@]4(O)[C@@H](C2)N(C)CC[C@]314` [oxycodone], the “binding … of SEQ ID NO: 1 (in words)” value in assay [1] is given as “do not bind well”. Also, in assay [1] (setting [2]), the inhibition at 10 µM was 25 to 50%.
For the compound `C=CCN1CC[C@]23c4c5ccc(O)c4O[C@H]2C(=O)CC[C@@]3(O)[C@H]1C5` [Naloxone], the “binding … of SEQ ID NO: 1 (in words)” value in assay [1] is given as “bind well”. Also, the “Percent inhibition of FITC-NLX binding” value in assay [1] (0.01 μM compound, 10 nM FITC-NLX) is 41.9% and 34.3% and 41.4% and 42.50%; in assay [1] (0.1 μM compound, 10 nM FITC-NLX), 48.6% and 38.5% and 47.2% and 54.20%; in assay [1] (1 μM compound, 10 nM FITC-NLX), 51.5% and 45.8% and 50.2% and 56.20%. In addition, the inhibition at 1 µM in assay [1] (read-out: Percent Inhibition, 1 μM compound (n = 5)) was 71.6%; in assay [1] (read-out: Percent inhibition of FITC-NLX binding, 1 μM compound, 10 nM FITC-NLX), 53.9%; in assay [1] (read-out: inhibition of binding of FITC-labeled NLX, 1 μM compound, 10 nM FITC-NLX, n=5, FIG. 11), ~75%. The inhibition at 0.01 µM in assay [1] (read-out: Percent inhibition of FITC-NLX binding, 0.01 μM compound, 10 nM FITC-NLX) amounted to 43%. Moreover, the inhibition at 0.1 µM in assay [1] (read-out: Percent inhibition of FITC-NLX binding, 0.1 μM compound, 10 nM FITC-NLX) is 50.3%.
As to `CN1CC[C@]23CCCC[C@H]2[C@H]1Cc1ccc(O)cc13` [Levorphanol], in assay [1] (read-out: Percent Inhibition), the inhibition at 1 µM was determined as 46.8% and the inhibition at 10 µM turned out to be 69.4%.
For the compound `Oc1ccc2c3c1O[C@H]1[C@@H](O)CC[C@@]4(O)[C@@H](C2)N(CC2CCC2)CC[C@]314` [Nalbuphine], the “binding … of SEQ ID NO: 1 (in words)” value in assay [1] is given as “bind well”. In assay [1] (read-out: Percent Inhibition), the inhibition at 1 µM worked out at 65.4% and the inhibition at 10 µM is 76.2%.
As to `Oc1ccc2c(c1)[C@@]13CCCC[C@@]1(O)[C@@H](C2)N(CC1CCC1)CC3` [Butorphanol], on kappa-opioid receptor, the “RECEPTOR KAPPA: antagonism/agonism and relative potency” value was “+++”.

The term inhibition denotes the relative decrease from the control value, in per cent.

The values above are taken from patent US20140094482A1, “BENZAZOCINE-RING COMPOUND INHIBITION OF TAU HYPERPHOSPHORYLATION” (priority 2012, published 2014).
